How the values were obtained:
[1] = system: SKBr3 breast cancer cells; assay: Growth inhibition, sulforhodamine B assay; assay type: cell-based, human; conditions: Homo sapiens, SK-BR-3, 72 h, average of 3 measurements
Method: Cell culture. The human breast cancer cell lines SKBr3 and MDA-MB-468 were a gift from Dr. Neal Rosen (MSKCC). Cells were maintained in 1:1 mixture of DME:F12 supplemented with 2 mM glutamine, 50 units/mL penicillin, 50 […] and 10% heat inactivated fetal bovine serum (Gemini Bioproducts #100-10b) and incubated at 37° C., 5% CO2. Growth assays. Growth inhibition studies were performed using the sulforhodamine B assay as previously described.^29 In summary, experimental cultures were plated in microtiter plates (Nunc #167008). One column of wells was left without cells to serve as the blank control. Cells were allowed to attach overnight. The following day, growth medium having either drug or DMSO at twice the desired initial concentration was added to the plate in triplicate and was serially diluted at a 1:1 ratio in the microtiter plate. After 72 h of growth, the cell number in treated versus control wells was estimated after treatment with 50% trichloroacetic acid and staining with 0.4% sulforhodamine B in 1% acetic acid. […] Normal human renal proximal tubular epithelial (RPTEC) cells were purchased pre-seeded in 96-well plates (Clonetics, CC-3190). Upon receipt, cells were placed in a humidified incubator at 37° C., 5% CO2 and allowed to equilibrate for 3 h. Media was removed by suction and replaced with fresh media provided by the manufacturer. Cells were then treated with either drugs or DMSO for 72 h and the IC50 values were determined as described above.

[2] = system: MDA-MB-468 cells; assay: Anti-mitotic assay (Tg-3 microtiter immunoassay); assay type: cell-based, human; conditions: 24 h, concentration dependent increase in Tg-3 luminescence
Method: Anti-mitotic assay. Black, clear-bottom microtiter 96-well plates (Corning Costar #3603) were used to accommodate experimental cultures. MDA-MB-468 cells were seeded in each well at 8,000 cells per well in growth medium (100 μL), and allowed to attach overnight at 37° C. and 5% CO2. Growth medium (100 μL) with drug or vehicle (DMSO) was gently added to the wells, and the plates were incubated at 37° C. and 5% CO2 for 24 h. Wells were washed with ice-cold TBST (2×200 μL). A house vacuum source attached to an eight-channel aspirator was used to remove the liquid from the 96-well plates. Ice-cold methanol (100 μL) was added to each well, and the plate was placed at 4° C. for 5 min. Methanol was removed by suction and plates were washed with ice-cold TBST (2×200 μL). Plates were further incubated with SuperBlock® blocking buffer (Pierce #37535) (200 μL) for 2 h at RT. The Tg-3 antibody (gift of Dr. Davies, Albert Einstein College of Medicine) diluted 1:200 in SuperBlock® was placed in each well (100 μL) except the control column that was treated with control antibody (Mouse IgM, NeoMarkers, NC-1030-P). After 72 h, wells were washed with ice-cold TBST (2×200 μL). […] Un-reacted antibody was removed by washing the plates with ice-cold TBST (3×200 μL) for 5 min on a shaker. The ECLTM Western Blotting Detection Reagents 1 and 2 in 1:1 mix (100 μL) was placed in each well and the plates were read immediately in an Analyst AD plate reader (Molecular Devices). Luminescence readings were imported into SOFTmax PROR 4.3.1. Anti-mitotic activity was defined as a concentration dependent increase in luminescence readings in compound-treated wells as compared to DMSO only treated wells.

[3] = Solubility in PBS; assay type: physicochemical; conditions: aqueous buffer, acid addition salt form
Method: (§1) Growth over 96 h was assessed.

[4] = system: H69AR; assay: Growth over 96 h in adriamycin-resistant SCLC cells; assay type: cell-based; conditions: resistant to adriamycin
Method: as §1

[5] = system: SKI-Chen; assay: Growth over 96 h in therapy-resistant SCLC cells; assay type: cell-based; conditions: from a patient who failed every conventional therapy
Method: as §1

[6] = system: Hsp90 client proteins (Raf-1, Akt), PARP cleavage; assay: Pharmacodynamics in small cell lung tumors; assay type: in vivo
[7] = system: small cell lung tumors; assay: Tumor growth inhibition in small cell lung cancer model; assay type: in vivo
[8] = system: U251 glioma cells; assay: Clonogenic survival assay, radiosensitization; assay type: cell-based, human
Method: (§2) Colony forming efficiency was determined 10-12 days later and survival curves generated after normalizing for cell killing by Compound 9 alone. The results are summarized in FIG. 11A (Compound 9) and B (Compound 8).

[9] = system: U87 glioma cells; assay: Clonogenic survival assay, radiosensitization; assay type: cell-based, human
Method: as §2

[10] = Blood brain barrier penetration
[11] = system: Hsp90 lung; assay: Hsp90 competition assay, lung homogenate
Method: (§3) Hsp90 competition assay. Fluorescence polarization measurements were performed on an Analyst AD instrument (Molecular Devices, Sunnyvale, Calif.). […] The assay buffer (HFB) contained 20 mM HEPES (K) pH 7.3, 50 mM KCl, 5 mM MgCl2, 20 mM Na2MoO4, 0.01% NP40. Before each use, 0.1 mg/mL bovine gamma globulin (BGG) (Panvera Corporation, Madison, Wis.) and 2 mM DTT (Fisher Biotech, Fair Lawn, N.J.) were freshly added. […] Cell lysates were prepared rupturing cellular membranes by freezing at −70° C. and dissolving the cellular extract in HFB with added protease and phosphotase inhibitors. Organs were harvested from a healthy mouse and homogenized in HFB. Saturation curves were recorded in which GM-BODIPY (5 nM) was treated with increasing amounts of cellular lysates.

[12] = system: Hsp90 heart; assay: Hsp90 competition assay, heart homogenate
Method: as §3

[13] = system: Hsp90 SKBr3; assay: Hsp90 competition assay, SKBr3 cell lysate; conditions: read-out: EC50 Hsp90 SKBr3
Method: Hsp90 competition assay. Fluorescence polarization measurements were performed on an Analyst AD instrument (Molecular Devices, Sunnyvale, Calif.). […] The assay buffer (HFB) contained 20 mM HEPES (K) pH 7.3, 50 mM KCl, 5 mM MgCl2, 20 mM Na2MoO4, 0.01% NP40. Before each use, 0.1 mg/mL bovine gamma globulin (BGG) (Panvera Corporation, Madison, Wis.) and 2 mM DTT (Fisher Biotech, Fair Lawn, N.J.) were freshly added. GM-BODIPY was synthesized as previously reported^23a and was dissolved in DMSO to form 10 μM solutions. Recombinant Hsp90α was purchased from Stressgen Bioreagents (cat. No. SPP-776), (Victoria, Canada). Cell lysates were prepared rupturing cellular membranes by freezing at −70° C. and dissolving the cellular extract in HFB with added protease and phosphotase inhibitors. […] Saturation curves were recorded in which GM-BODIPY (5 nM) was treated with increasing amounts of cellular lysates.

[14] = Plasma and tumor levels in small cell lung cancer model; conditions: tumor

CC(C)NCCCn1c(Sc2cc3c(cc2I)OCO3)nc2c(N)ncnc21 [Example 9, 8-(6-Iodo-benzo[1,3]dioxol-5-ylsulfanyl)-9-(3-isopropylamino-propyl)adenine]
IC50 [1]: 50 ± 5 nM | Anti-mitotic [2]: Yes | solubility [3]: > 5 mM | activity in resistant SCLC cell line [4]: retains its activity | activity in resistant SCLC cell line [5]: retains its activity | apoptosis of the tumor (PARP cleavage) ([6]; FIG. 9C): induces significant apoptosis | Raf-1 and Akt in tumor ([6]; one administered dose): efficiently degraded or inactivated | tumor growth ([7]; comparable to 17AAG, FIG. 9D): efficiently inhibited the growth | toxicity to the host ([7]; in vivo): without toxicity | surviving fraction after compound treatment only ([8]; U251 cells): 0.86 | dose enhancement factors ([8]; range across U251 and U87, 16 h exposure before X rays): 1.4-1.6 | surviving fraction after compound treatment only [9]: 0.68 | crossing of the blood brain barrier [10]: ability to cross the blood brain barrier | Lung/SKBr3 ([11]; ratio of EC50 Hsp90 values): 48 | EC50 ([11]; read-out: EC50 Hsp90 lung, normal tissue): 2400 ± 240 nM | Heart/SKBr3 ([12]; ratio of EC50 Hsp90 values): 140 | EC50 ([12]; read-out: EC50 Hsp90 heart, normal tissue): 6900 ± 150 nM | EC50 [13]: 50.4 ± 4 nM | retention in tumors at pharmacologic doses [14]: more than 36 h

Reference: patent US10167285B2, “Small-molecule HSP90 inhibitors” (Memorial Sloan Kettering Cancer Center, priority 2005, dated 2019)
